Measured values as given in the NIST ThermoML archive (doi:10.1016/j.jct.2011.12.010).

Experiment: molar heat capacity at constant pressure
Conditions: 101.33 kPa, Vacuum adiabatic calorimetry

CC(C)(C)Cc1ccccc1 [(2,2-dimethylpropyl)benzene]
molar heat capacity at constant pressure [J/K/mol]
Conditions	Crystal	Liquid
146.34 K	124.22	–
148.22 K	125.63	–
150 K	126.5	–
150.12 K	126.88	–
152.5 K	128.37	–
155.37 K	130.04	–
158.24 K	132.28	–
160 K	133.4	–
161.11 K	134.11	–
163.99 K	135.94	–
166.87 K	138.27	–
169.76 K	140.35	–
170 K	140.3	–
172.66 K	141.93	–
175.55 K	144.34	–
178.45 K	146.25	–
180 K	147.4	–
181.36 K	148.33	–
184.27 K	150.32	–
187.18 K	152.57	–
190 K	154.6	–
190.11 K	154.9	–
194.33 K	157.56	–
197.18 K	160.05	–
200 K	162	–
200.37 K	162.3	–
203.56 K	164.63	–
206.46 K	166.79	–
209.27 K	168.78	–
210 K	169.1	–
212.11 K	170.36	–
215.02 K	172.52	–
217.92 K	174.27	–
220 K	175.9	–
220.82 K	176.51	–
223.7 K	178.18	–
226.59 K	180.26	–
229.46 K	182.33	–
230 K	182.6	–
232.33 K	184.33	–
235.2 K	186.58	–
238.05 K	188.32	–
239.91 K	189.73	–
240 K	189.4	–
240.89 K	190.48	–
240.92 K	190.57	–
241.92 K	190.98	–
242.92 K	191.9	–
243.72 K	192.4	–
243.92 K	192.73	–
244.93 K	193.73	–
246 K	195.64	–
246.56 K	197.88	–
246.6 K	202.12	–
247.1 K	197.38	–
248.19 K	200.88	–
249.28 K	206.03	–
249.34 K	207.61	–
250 K	196.1	–
250.36 K	213.26	–
251.42 K	222.66	–
252.01 K	245.27	–
252.39 K	417.05	–
252.46 K	249.27	–
253.4 K	315.03	–
254.15 K	685.44	–
254.18 K	538.11	–
254.69 K	1232.2	–
254.95 K	2919.2	–
255.01 K	4462.3	–
255.06 K	8092.4	–
255.09 K	5555.7	–
255.17 K	8555.5	–
255.21 K	9885.8	–
255.43 K	199.7	249.6
256.43 K	–	250.01
257.37 K	–	252.18
257.44 K	–	250.6
258.44 K	–	251.09
258.78 K	–	252.09
259.45 K	–	251.68
260 K	–	252
260.46 K	–	252.26
261.48 K	–	252.92
262.48 K	–	253.42
263.49 K	–	254
264.48 K	–	254.59
264.99 K	–	254.92
265.49 K	–	255.09
266.49 K	–	255.67
267.49 K	–	256
268.67 K	–	256.58
270 K	–	257.2
271.15 K	–	257.83
277.28 K	–	260.82
280 K	–	262.5
283.39 K	–	264.31
289.47 K	–	267.64
290 K	–	268
295.52 K	–	270.8
298.15 K	–	271.9
300 K	–	272.6
300.23 K	–	272.71
300.79 K	–	273.13
301.54 K	–	273.46
304.11 K	–	274.29
304.68 K	–	274.54
307.54 K	–	275.37
307.98 K	–	275.62
308.57 K	–	275.71
310 K	–	276.3
311.84 K	–	276.95
312.43 K	–	277.2
313.51 K	–	277.62
315.67 K	–	278.2
316.31 K	–	278.53
319.32 K	–	279.36
319.51 K	–	279.86
320 K	–	279.8
320.02 K	–	279.95
323.33 K	–	281.36
323.89 K	–	281.44
325.26 K	–	281.86
327.15 K	–	283.02
327.74 K	–	283.02
330 K	–	284.4
330.95 K	–	285.27
331.19 K	–	285.18
331.59 K	–	285.27
334.56 K	–	287.35
335.41 K	–	288.01
337.07 K	–	289.09
338.32 K	–	289.92
339.23 K	–	290.51
340 K	–	290.8
342.07 K	–	292.33
342.92 K	–	292.67
343.02 K	–	292.75
345.8 K	–	294.83
346.79 K	–	295.24
348.74 K	–	295.99
349.52 K	–	296.82
350 K	–	297
350.54 K	–	297.49
